Test results published in PubChem BioAssay (NCI).
Values joined by “and” are separate entries in the source; they are usually repeats but may differ in a detail not shown here. Equal entries are not always repeated.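 A five-concentration, 48-hour dose response in 96-well plates underlies each endpoint, interpolated linearly between surrounding concentrations. GI50 = concentration required for 50% inhibition of growth. Definition used: TGI = concentration required for complete inhibition of growth.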

How the values were obtained:
Test in all cases: DTP human tumour cell line panel, 48 h
MALME-3M melanoma = system: MALME-3M melanoma
HT29 colon = system: HT29 colon
SN12C renal = system: SN12C renal
NCI-H460 lung = system: NCI-H460 lung
RXF 393 renal = system: RXF 393 renal
HCT-15 colon = system: HCT-15 colon
MDA-MB-435 = system: MDA-MB-435
NCI/ADR-RES ovarian = system: NCI/ADR-RES ovarian
T-47D breast = system: T-47D breast
MDA-MB-231 breast = system: MDA-MB-231 breast

| SMILES | TGI (MALME-3M melanoma) | TGI (HT29 colon) | TGI (SN12C renal) | TGI (NCI-H460 lung) | TGI (RXF 393 renal) | TGI (HCT-15 colon) | GI50 (MALME-3M melanoma) | GI50 (MDA-MB-435) | TGI (MDA-MB-435) | GI50 (NCI/ADR-RES ovarian) | TGI (NCI/ADR-RES ovarian) | GI50 (RXF 393 renal) | GI50 (HT29 colon) | GI50 (HCT-15 colon) | GI50 (T-47D breast) | TGI (T-47D breast) | GI50 (SN12C renal) | GI50 (MDA-MB-231 breast) | TGI (MDA-MB-231 breast) | GI50 (NCI-H460 lung) |
| --- | --- | --- | --- | --- | --- | --- | --- | --- | --- | --- | --- | --- | --- | --- | --- | --- | --- | --- | --- | --- |
| [N-]=[N+]=NC12CC3C4CC5CC3C(C1)C(C5)C4C2 | > 100 µM | > 100 µM | > 100 µM | > 100 µM |  |  |  |  |  |  |  |  |  |  |  |  |  |  |  |  |
| O=[N+]([O-])c1ccc(C2=Nn3cnnc3SC2)o1 |  | 28.2 µM | 30.1 µM | 26.3 µM | 32.9 µM | 27.2 µM |  |  |  |  |  |  |  |  |  |  |  |  |  |  |
| CC(C)=CCNc1ncnc2c1ncn2C1OC(CO)C(O)C1O (stereo not drawn) | > 1000 µM | > 1000 µM | > 408 µM | > 345 µM | 2.6 µM | 36.8 µM | 226 µM | 3.26 µM | > 1000 µM | 1.5 µM | 52.1 µM | 0.488 µM | 1.34 µM | 1.05 µM | 0.983 µM | 3.92 µM | 1.36 µM | 1.52 µM | 9.33 µM | 4.02 µM |
| COC1(OC)CC2C(=O)N(Cc3ccccc3)C1C(S(=O)(=O)c1ccccc1)C2S(=O)(=O)c1ccccc1 (stereo not drawn) | 29.3 µM | 28.4 µM | 25.4 µM | 82.7 µM | 25.6 µM | 14.8 µM |  |  |  |  |  |  |  |  |  |  |  |  |  |  |
| N#Cc1c(NN)n(C2OC(CO)C(O)C2O)c2ncnc(N)c12 (stereo not drawn) | 1.35 µM |  | > 47.5 µM | 0.412 µM | 0.415 µM |  | 0.0858 µM | 0.104 µM | 0.916 µM | 0.283 µM | 4.17 µM | 0.0398 µM | 0.0351 µM | 0.0198 µM | 0.0191 µM | 0.118 µM | 0.151 µM | 0.284 µM | > 24.1 µM | 0.032 µM |
| C=C1CC[C@@H]2[C@](C)(COC(C)=O)[C@H](OC(C)=O)CC[C@@]2(C)[C@@H]1CC(Sc1ccccc1)C1=CCOC1=O (stereo partly drawn) | 3.63 µM | 3.77 µM | 7.07 µM | 6.03 µM | 3.12 µM | 2.59 µM | 1.74 µM | 1.41 µM | 3.58 µM | 2.1 µM | 11 µM | 1.62 µM | 1.77 µM | 0.877 µM | 2.01 µM | 8.32 µM | 2.1 µM | 2.47 µM | 6.3 µM | 2.24 µM |
| CCN(CC)CCC(CNc1ccnc2cc(Cl)ccc12)c1ccc(OC)cc1 (stereo not drawn) | 3.76 µM and 3.64 µM | 13.2 µM and 11.2 µM | 34.3 µM and 37.8 µM | 25.6 µM and 24.7 µM | 15.6 µM and 5.16 µM | 12.3 µM and 16.5 µM | 1.95 µM and 1.86 µM | 1.91 µM and 1.65 µM | 4.12 µM and 3.71 µM | 8.66 µM and 7.57 µM | 47.5 µM and 34.3 µM | 3.5 µM and 2.26 µM | 2.47 µM and 0.6 µM | 3.06 µM and 3.51 µM | 2.59 µM and 2.73 µM | 6.66 µM and 7.85 µM | 12.9 µM and 11.4 µM | 2.34 µM and 2.42 µM | 11.2 µM and 10.9 µM | 11.1 µM and 4.91 µM |
| COc1cc(N(CCC#N)CCC#N)ccc1/C(N=Nc1ccc([N+](=O)[O-])cc1)=N/NC(=O)c1cc(Br)ccc1O | 96.1 µg/mL | 105 µg/mL | > 150 µg/mL | 107 µg/mL | 83.8 µg/mL | 68.2 µg/mL | 44.2 µg/mL | 52.2 µg/mL | > 150 µg/mL | 40.1 µg/mL | 116 µg/mL | 30.3 µg/mL | 43.5 µg/mL | 25.6 µg/mL | 34.6 µg/mL | 87 µg/mL | 53.4 µg/mL | 35.7 µg/mL | 85.2 µg/mL | 33.8 µg/mL |
